Data from patent US9174973B2, “Crystalline forms of azilsartan and preparation and uses thereof” (SUNSHINE LAKE PHARMA CO., LTD., priority 2011, dated 2015).

How the values were obtained:
Type in all cases: physicochemical
[1] = solubility test of crystalline forms in 0.1M HCl (Chinese Pharmacopoeia 2010); settings: 300 mg in 6 ml 0.1M HCl, 25° C.±2° C.
Experimental: The solubility of crystalline forms A, B, C and D was measured in accordance with the solubility test described in “Chinese Pharmacopoeia 2010”, Topic and Requirement 15. A crystalline form of azilsartan was grinded into powder. The powder (300 mg) was added to 6 ml of 0.1M HCl as the solvent at 25° C.±2° C. […] The total test time was 30 minutes. The solid was deemed as dissolved when no solid was detected in the mixture by human eyes. The solubility data of crystalline forms A, B, C and D of azilsartan are as shown below.

[2] = Thermal Stability of crystalline form A
Experimental: (§1) A layer of crystalline form A having a thickness of less than 5 mm was place in a flat weighing bottle. […] Samples were taken out at 6 days, 11 days and 16 days and examined for purity by HPLC, appearance and crystalline form. The conditions for the HPLC measurements are as shown below. • Instrument: Agilent 1200HPLC • Column: Agilent Eclipse XDB-C18 4.6*150 mm, 5 μm • Detection wavelength: 254 nm • Mobile phase: A phase 10 mM ammonium acetate (pH=3.5) and B phase acetonitrile [table]

[3] = Light Stability of crystalline form A; settings: light 4500+/−500 Lux, 6 days
Experimental: as §1

[4] = 0 day (initial sample, before stress)

Structure (SMILES): CCOc1nc2cccc(C(=O)O)c2n1Cc1ccc(-c2ccccc2-c2noc(=O)[nH]2)cc1 [Form A]
- solubility [1]: very soluble
- Appearance [2, 4]: White or off-
- Crystalline form [2, 4]: Form A
- RT* (min.) 2.39 (HPLC peak) [2, 4]: — (“—” refers to the peak area is less than 3000 or there is no peak)
- RT* (min.) 2.89 (HPLC peak) [2, 4]: 0.01%
- RT* (min.) 3.9 (HPLC peak) [2, 4]: 0.32%
- RT* (min.) 5.79 (HPLC peak) [2, 4]: — (“—” refers to the peak area is less than 3000 or there is no peak)
- RT* (min.) 13.2 (azilsartan peak, purity by HPLC) [2, 4]: 99.51%
- RT* (min.) 20.55 (HPLC peak) [2, 4]: — (“—” refers to the peak area is less than 3000 or there is no peak)
- RT* (min.) 22.8 (HPLC peak) [2, 4]: 0.04%
- RT* (min.) 23.6 (HPLC peak) [2, 4]: 0.01%
- RT* (min.) 26.96 (HPLC peak) [2, 4]: — (“—” refers to the peak area is less than 3000 or there is no peak)
- RT* (min.) 27.5 (HPLC peak) [2, 4]: 0.06%
- RT* (min.) 28.81 (HPLC peak) [2, 4]: — (“—” refers to the peak area is less than 3000 or there is no peak)
- RT* (min.) 30.66 (HPLC peak) [2, 4]: 0.02%
- Appearance ([2]; 60° C., 6 days): White or off-
- Crystalline form ([2]; 60° C., 6 days): Form A
- RT* (min.) 2.39 (HPLC peak) ([2]; 60° C., 6 days): — (“—” refers to the peak area is less than 3000 or there is no peak)
- RT* (min.) 2.89 (HPLC peak) ([2]; 60° C., 6 days): 0.02%
- RT* (min.) 3.9 (HPLC peak) ([2]; 60° C., 6 days): 0.33%
- RT* (min.) 5.79 (HPLC peak) ([2]; 60° C., 6 days): 0.01%
- RT* (min.) 13.2 (azilsartan peak, purity by HPLC) ([2]; 60° C., 6 days): 99.47%
- RT* (min.) 20.55 (HPLC peak) ([2]; 60° C., 6 days): 0.01%
- RT* (min.) 22.8 (HPLC peak) ([2]; 60° C., 6 days): 0.04%
- RT* (min.) 23.6 (HPLC peak) ([2]; 60° C., 6 days): 0.02%
- RT* (min.) 26.96 (HPLC peak) ([2]; 60° C., 6 days): 0.01%
- RT* (min.) 27.5 (HPLC peak) ([2]; 60° C., 6 days): 0.06%
- RT* (min.) 28.81 (HPLC peak) ([2]; 60° C., 6 days): 0.01%
- RT* (min.) 30.66 (HPLC peak) ([2]; 60° C., 6 days): 0.03%
- Appearance ([2]; 60° C., 11 days): White or off-
- Crystalline form ([2]; 60° C., 11 days): Form A
- RT* (min.) 2.39 (HPLC peak) ([2]; 60° C., 11 days): — (“—” refers to the peak area is less than 3000 or there is no peak)
- RT* (min.) 2.89 (HPLC peak) ([2]; 60° C., 11 days): 0.01%
- RT* (min.) 3.9 (HPLC peak) ([2]; 60° C., 11 days): 0.35%
- RT* (min.) 5.79 (HPLC peak) ([2]; 60° C., 11 days): — (“—” refers to the peak area is less than 3000 or there is no peak)
- RT* (min.) 13.2 (azilsartan peak, purity by HPLC) ([2]; 60° C., 11 days): 99.48%
- RT* (min.) 20.55 (HPLC peak) ([2]; 60° C., 11 days): 0.02%
- RT* (min.) 22.8 (HPLC peak) ([2]; 60° C., 11 days): 0.04%
- RT* (min.) 23.6 (HPLC peak) ([2]; 60° C., 11 days): 0.02%
- RT* (min.) 26.96 (HPLC peak) ([2]; 60° C., 11 days): — (“—” refers to the peak area is less than 3000 or there is no peak)
- RT* (min.) 27.5 (HPLC peak) ([2]; 60° C., 11 days): 0.07%
- RT* (min.) 28.81 (HPLC peak) ([2]; 60° C., 11 days): — (“—” refers to the peak area is less than 3000 or there is no peak)
- RT* (min.) 30.66 (HPLC peak) ([2]; 60° C., 11 days): 0.02%
- Appearance ([2]; 60° C., 16 days): White or off-
- Crystalline form ([2]; 60° C., 16 days): Form A
- RT* (min.) 2.39 (HPLC peak) ([2]; 60° C., 16 days): — (“—” refers to the peak area is less than 3000 or there is no peak)
- RT* (min.) 2.89 (HPLC peak) ([2]; 60° C., 16 days): 0.01%
- RT* (min.) 3.9 (HPLC peak) ([2]; 60° C., 16 days): 0.35%
- RT* (min.) 5.79 (HPLC peak) ([2]; 60° C., 16 days): — (“—” refers to the peak area is less than 3000 or there is no peak)
- RT* (min.) 13.2 (azilsartan peak, purity by HPLC) ([2]; 60° C., 16 days): 99.47%
- RT* (min.) 20.55 (HPLC peak) ([2]; 60° C., 16 days): 0.02%
- RT* (min.) 22.8 (HPLC peak) ([2]; 60° C., 16 days): 0.04%
- RT* (min.) 23.6 (HPLC peak) ([2]; 60° C., 16 days): 0.02%
- RT* (min.) 26.96 (HPLC peak) ([2]; 60° C., 16 days): — (“—” refers to the peak area is less than 3000 or there is no peak)
- RT* (min.) 27.5 (HPLC peak) ([2]; 60° C., 16 days): 0.07%
- RT* (min.) 28.81 (HPLC peak) ([2]; 60° C., 16 days): — (“—” refers to the peak area is less than 3000 or there is no peak)
- RT* (min.) 30.66 (HPLC peak) ([2]; 60° C., 16 days): 0.02%
- Appearance [3]: Light yellow
- Crystalline form [3]: Form A
- RT* (min.) 2.39 (HPLC peak) [3]: 0.01%
- RT* (min.) 2.89 (HPLC peak) [3]: 0.09%
- RT* (min.) 3.9 (HPLC peak) [3]: 0.32%
- RT* (min.) 5.79 (HPLC peak) [3]: — (“—” refers to the peak area is less than 3000 or there is no peak)
- RT* (min.) 13.2 (azilsartan peak, purity by HPLC) [3]: 99.45%
- RT* (min.) 20.55 (HPLC peak) [3]: — (“—” refers to the peak area is less than 3000 or there is no peak)
- RT* (min.) 22.8 (HPLC peak) [3]: 0.04%
- RT* (min.) 23.6 (HPLC peak) [3]: 0.01%
- RT* (min.) 26.96 (HPLC peak) [3]: — (“—” refers to the peak area is less than 3000 or there is no peak)
- RT* (min.) 27.5 (HPLC peak) [3]: 0.06%
- RT* (min.) 28.81 (HPLC peak) [3]: — (“—” refers to the peak area is less than 3000 or there is no peak)
